By IC50 is commonly meant the concentration needed to halve the response being measured. Read a high IC50 as a need for much substance. As a reminder, the inhibition is the share of the control response that was lost under treatment. One may read the Km as the concentration of substrate that gives half-maximal velocity.

Our source for the IC50, inhibition and Km values is article PMC3682184 (Experimental Parasitology, 2013).

For data set [1], the target named is T1, NADP-dependent secondary alcohol dehydrogenase (ADH-1) (Trichomonas vaginalis, UniProt A2DJ40).
T1 sequence (A2DJ40 1-365): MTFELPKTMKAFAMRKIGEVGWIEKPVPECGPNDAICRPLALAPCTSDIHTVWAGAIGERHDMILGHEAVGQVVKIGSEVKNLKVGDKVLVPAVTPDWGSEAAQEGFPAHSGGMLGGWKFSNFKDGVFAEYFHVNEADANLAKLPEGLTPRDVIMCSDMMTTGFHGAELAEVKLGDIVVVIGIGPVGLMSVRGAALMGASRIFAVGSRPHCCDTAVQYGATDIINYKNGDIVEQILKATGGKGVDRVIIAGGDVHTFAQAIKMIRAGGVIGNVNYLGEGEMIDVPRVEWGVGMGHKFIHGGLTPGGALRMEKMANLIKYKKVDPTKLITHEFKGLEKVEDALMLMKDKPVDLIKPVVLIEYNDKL
The data set is described as follows: NADPH oxidation at […] nm, acetaldehyde reduction. Type of data set: biochemical.

Data set [2] concerns the target T2, NADP-dependent secondary alcohol dehydrogenase (E. histolytica homologue of ADH-1) (Entamoeba histolytica, UniProt P35630).
T2 sequence (P35630 1-366): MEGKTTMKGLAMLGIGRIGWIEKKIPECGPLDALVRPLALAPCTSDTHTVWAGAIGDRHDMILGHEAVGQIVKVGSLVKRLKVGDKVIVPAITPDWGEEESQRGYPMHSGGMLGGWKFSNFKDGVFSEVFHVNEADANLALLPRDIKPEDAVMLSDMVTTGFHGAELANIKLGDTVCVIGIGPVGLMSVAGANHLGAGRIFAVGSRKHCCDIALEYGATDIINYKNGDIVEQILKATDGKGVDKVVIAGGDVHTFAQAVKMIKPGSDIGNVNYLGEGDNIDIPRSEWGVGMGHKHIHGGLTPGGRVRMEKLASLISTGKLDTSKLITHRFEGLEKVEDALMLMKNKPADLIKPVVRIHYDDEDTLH
The data set is described as follows: NADPH oxidation at […] nm in cell extract, acetaldehyde reduction. Type of data set: biochemical.

Substrate in data set [3]: CC(C)O
The data set is described as follows: purified protein. As to conditions: 1 mM NADP+, pH 6.75, 37 °C.

Substrate in data set [4]: NC(=O)c1ccc[n+]([C@@H]2O[C@H](COP(=O)(O)OP(=O)(O)OC[C@H]3O[C@@H](n4cnc5c(N)ncnc54)[C@H](OP(=O)(O)O)[C@@H]3O)[C@@H](O)[C@H]2O)c1
The data set is described as follows: purified protein. As to conditions: 100 mM 2-propanol, pH 6.75, 37 °C, varied: cofactor.

For the molecule `CC(C)O` [2-propanol], the IC50 in data set [1] was found to be 96 ± 11 mM. Moreover, the inhibition at 200000 µM in data set [2] (read-out: Inhibition 2-propanol ^b aldehyde reduction) came to 80 ± 11%.
The molecule `CC(C)(COP(=O)(O)OP(=O)(O)OC[C@H]1O[C@@H](n2cnc3c(N)ncnc32)[C@H](O)[C@@H]1OP(=O)(O)O)[C@@H](O)C(=O)NCCC(=O)NCCS` [coenzyme A] had an IC50 in data set [1] of 0.063 ± 0.017 mM. Besides, in data set [2] (read-out: Inhibition CoA ^c aldehyde reduction), the inhibition at 100 µM turned out to be 62 ± 22%.

B1: NADP-dependent secondary alcohol dehydrogenase (ADH-1) (Trichomonas vaginalis G3) (protein)
chain: T1 sequence (A2DJ40 1-365)
As for B1, the figures for the Michaelis constant (Km) in the data set “purified protein [3]” and in “purified protein [4]” were 11.57 ± 1.25 mM and 0.0412 ± 0.0044 mM, respectively.
